# Source: patent US20090306059A1, “CYCLIC AMINE DERIVATIVE HAVING SUBSTITUTED ALKYL GROUP” (priority 2005, published 2009)
# Structures can show the parent of a compound that is named as a salt.
# Tested on: platelet aggregation caused by ADP in platelet-rich plasma (PRP) after oral administration
# Assay: Test Example 2: ex vivo platelet aggregation inhibitory effect
# Format: in vivo, rat (male Sprague-Dawley)
# Conditions: 10 mg/kg orally, 4 hours before blood sampling, rat PRP, ADP final concentration 3 μM, maximum platelet aggregation ratio, read-out: Test Example 1 (% inhibition) 10 mg/kg
# Method: Male Sprague-Dawley rats (8-week old, Japan SLC, Inc.), 3 to 4 animals per group, were used for the test. The platelet aggregation was measured with an automatic platelet aggregometer (MCM Hema Tracer 313M, MC Medical, Inc.) by a partially modified method of Bom et al., The Journal of Physiology, Vol. 168, Section 178 (1963). Test compounds suspended in 5% Arabian gum solution or 10% dimethylacetamide/64% polyethylene glycol 400/16% Tween 80 solution were orally administered in a dose ratio of 1 mL/kg 4 hours before blood sampling. Vehicle was orally administered 4 hours in a dose ratio of 1 mL/kg before the sampling of the blood for the control group. 6.3 ml of blood was sampled from the ventral aorta of a rat anesthetized with pentobarbital (40 mg/kg) using 3.8% (w/v) sodium citrate solution (0.7 ml) as an anticoagulant. The obtained blood containing citrate was centrifuged (230 g, 15 minutes, room temperature) to separate PRP. The blood after the separation of PRP was further centrifuged (2,000 g, 10 minutes, room temperature) to separate PPP. After the number of blood platelet in PRP was measured with a multi-item automatic blood corpuscle counter (KX-21N, Sysmex Corporation), PPP was added thereto to adjust the blood platelet to 5×10^8/ml. After PRP (240 μl) was pipetted into cuvettes, the cuvettes were set in the automatic platelet aggregometer. After preliminary warming (37° C.) for 1.5 minutes, 10 μl of ADP solution (final concentration 3 μM) was added to cause platelet aggregation. Platelet aggregation was measured for 5 minutes and the maximum platelet aggregation ratio was determined.
row,Compound,inhibition at 10 mg/kg [%]
1,"CCOC(=O)CN1CCN(C/C=C2\CN(C(C(=O)C3CC3)c3ccccc3F)CCC2SC(C)=O)CC1=O (stereo not shown) [Example 13, (E)-4-(Acetylsulfanyl)-1-[2-cyclopropyl-1-(2-fluorophenyl)-2-oxoethyl]-3-{2-[4-(ethoxycarbonylmethyl)-3-oxopiperazin-1-yl]ethylidene}piperidine]",63
2,"CCOC(=O)CCN1CCN(C/C=C2\CN(C(C(=O)C3CC3)c3ccccc3F)CCC2SC(C)=O)CC1=O (stereo not shown) [Example 17, (E)-4-(Acetylsulfanyl)-1-[2-cyclopropyl-1-(2-fluorophenyl)-2-oxoethyl]-3-(2-{4-[2-(ethoxycarbonyl)ethyl]-3-oxopiperazin-1-yl}ethylidene)piperidine]",92
3,"CCOC(=O)CCN1CCN(C/C=C2\CN(C(C(=O)C3CC3)c3ccccc3F)CCC2SC(C)=O)C(=O)C1 (stereo not shown) [Example 21, (E)-4-(Acetylsulfanyl)-1-[2-cyclopropyl-1-(2-fluorophenyl)-2-oxoethyl]-3-(2-{4-[2-(ethoxycarbonyl)ethyl]-2-oxopiperazin-1-yl}ethylidene)piperidine dihydrochloride]",90
4,"CC(=O)SC1CCN(C(C(=O)C2CC2)c2ccccc2F)C/C1=C\CN1CCN(CCC(=O)O)CC1=O (stereo not shown) [Example 24, (E)-4-(Acetylsulfanyl)-3-(2-{4-[2-(carboxyethyl)]-2-oxopiperazin-1-yl}ethylidene)-1-[2-cyclopropyl-1-(2-fluorophenyl)-2-oxoethyl]piperidine dihydrochloride]",85
5,"COC(=O)[C@@H]1CCCN1C/C=C1\CN(C(C(=O)C2CC2)c2ccccc2F)CCC1SC(C)=O (stereo partly drawn) [Example 25, (E)-4-(Acetylsulfanyl)-1-[2-cyclopropyl-1-(2-fluorophenyl)-2-oxoethyl]-3-{2-[(2S)-(methoxycarbonyl)pyrrolidin-1-yl]ethylidene}piperidine dihydrochloride]",92
6,"COC(=O)[C@@H]1CCCN1C/C=C1\CN(C(C(=O)C2CC2)c2ccccc2F)CCC1S (stereo partly drawn) [Example 26, (E)-1-[2-Cyclopropyl-1-(2-fluorophenyl)-2-oxoethyl]-3-{2-[(2S)-(methoxycarbonyl)pyrrolidin-1-yl]ethylidene}-4-sulfanylpiperidine dihydrochloride]",92
7,"CCOC(=O)C1CCN(C/C=C2\CN(C(C(=O)C3CC3)c3ccccc3F)CCC2SC(C)=O)CC1 (stereo not shown) [Example 29, (E)-4-(Acetylsulfanyl)-1-[2-cyclopropyl-1-(2-fluorophenyl)-2-oxoethyl]-3-{2-[4-(ethoxycarbonyl)piperidin-1-yl]ethylidene}piperidine dihydrochloride]",89
8,"CCOC(=O)C1CCN(C/C=C2\CN(C(C(=O)C3CC3)c3ccccc3F)CCC2S)CC1 (stereo not shown) [Example 30, (E)-1-[2-Cyclopropyl-1-(2-fluorophenyl)-2-oxoethyl]-3-{2-[4-(ethoxycarbonyl)piperidin-1-yl]ethylidene}-4-sulfanylpiperidine dihydrochloride]",93
9,"O=C(O)C1CCN(C/C=C2\CN(C(C(=O)C3CC3)c3ccccc3F)CCC2S)CC1 (stereo not shown) [Example 31, (E)-3-{2-[4-(Carboxypiperidine)-1-yl]ethylidene}-1-[2-cyclopropyl-1-(2-fluorophenyl)-2-oxoethyl]-4-sulfanylpiperidine dihydrochloride]",82
10,"CC(=O)SC1CCN(C(C(=O)C2CC2)c2ccccc2F)C/C1=C\CO (stereo not shown) [Example 32, (E)-4-(Acetylsulfanyl)-1-[2-cyclopropyl-1-(2-fluorophenyl)-2-oxoethyl]-3-(2-hydroxyethylidene)piperidine]",86
11,"CCOC(=O)CN1CCC(/C=C2\CN(C(C(=O)C3CC3)c3ccccc3F)CCC2SC(C)=O)CC1 (stereo not shown) [Example 36, (E)-4-(Acetylsulfanyl)-1-[2-cyclopropyl-1-(2-fluorophenyl)-2-oxoethyl]-3-{[1-(ethoxycarbonylmethyl)piperidin-4-yl]methylidene}piperidine dihydrochloride]",80
12,"CCOC(=O)CN1CCC(/C=C2\CN(C(C(=O)C3CC3)c3ccccc3F)CCC2S)CC1 (stereo not shown) [Example 38, (E)-1-[2-Cyclopropyl-1-(2-fluorophenyl)-2-oxoethyl]-3-{[1-(ethoxycarbonylmethyl)piperidin-4-yl]methylidene}-4-sulfanylpiperidine dihydrochloride]",66
13,"C/C(Cn1cc(C(=O)O)cn1)=C1/CN(C(C(=O)C2CC2)c2ccccc2F)CCC1S (stereo not shown) [Example 62, (E)-3-{[2-(4-Carboxy-1H-pyrazol-1-yl)-1-methyl]ethylidene}-1-[2-cyclopropyl-1-(2-fluorophenyl)-2-oxoethyl]-4-sulfanylpiperidine hydrochloride]",94
14,"O=C(O)C/C=C1\CN(C(C(=O)C2CC2)c2ccccc2F)CCC1S (stereo not shown) [Example 64, (E)-3-(2-Carboxyethylidene)-1-[2-cyclopropyl-1-(2-fluorophenyl)-2-oxoethyl]-4-sulfanylpiperidine hydrochloride]",94
15,"CC(=O)SC1CCN(C(C(=O)C2CC2)c2ccccc2F)C/C1=C/CO (stereo not shown) [Example 66, (Z)-4-(Acetylsulfanyl)-1-[2-cyclopropyl-1-(2-fluorophenyl)-2-oxoethyl]-3-(2-hydroxyethylidene)piperidine hydrochloride]",87
16,"O=C(O)CCCN1CCN(C/C=C2\CN(C(C(=O)C3CC3)c3ccccc3F)CCC2S)C(=O)C1 (stereo not shown) [Example 72, (E)-3-(2-{4-[3-(Carboxypropyl)]-2-oxopiperazin-1-yl}ethylidene)-1-[2-cyclopropyl-1-(2-fluorophenyl)-2-oxoethyl]-4-sulfanylpiperidine dihydrochloride]",76
17,"COC(=O)[C@@H]1C[C@@H](O)CN1C/C=C1\CN(C(C(=O)C2CC2)c2ccccc2F)CCC1SC(C)=O (stereo partly drawn) [Example 78, (E)-4-(Acetylsulfanyl)-1-[2-cyclopropyl-1-(2-fluorophenyl)-2-oxoethyl]-3-{2-[(2S,4R)-4-hydroxy-2-(methoxycarbonyl)pyrrolidin-1-yl]ethylidene}piperidine dihydrochloride]",75
18,"CCOC(=O)CN(C)C/C=C1\CN(C(C(=O)C2CC2)c2ccccc2F)CCC1SC(C)=O (stereo not shown) [Example 81, (E)-4-(Acetylsulfanyl)-1-[2-cyclopropyl-1-(2-fluorophenyl)-2-oxoethyl]-3-{2-[N-(ethoxycarbonylmethyl)-N-methylamino]ethylidene}piperidine dihydrochloride]",83
19,"CCOC(=O)CN(C)C/C=C1\CN(C(C(=O)C2CC2)c2ccccc2F)CCC1S (stereo not shown) [Example 82, (E)-1-[2-Cyclopropyl-1-(2-fluorophenyl)-2-oxoethyl]-3-{2-[N-(ethoxycarbonylmethyl)-N-methylamino]ethylidene}-4-sulfanylpiperidine dihydrochloride]",81
20,"CCOC(=O)CN(C)C/C=C1/CN(C(C(=O)C2CC2)c2ccccc2F)CCC1SC(C)=O (stereo not shown) [Example 84, (Z)-4-(Acetylsulfanyl)-1-[2-cyclopropyl-1-(2-fluorophenyl)-2-oxoethyl]-3-{2-[N-(ethoxycarbonylmethyl)-N-methylamino]ethylidene}piperidine dihydrochloride]",82
21,"CCOC(=O)CN(C)C/C=C1/CN(C(C(=O)C2CC2)c2ccccc2F)CCC1S (stereo not shown) [Example 85, (Z)-1-[2-Cyclopropyl-1-(2-fluorophenyl)-2-oxoethyl]-3-{2-[N-(ethoxycarbonylmethyl)-N-methylamino]ethylidene}-4-sulfanylpiperidine dihydrochloride]",82
22,"CCOC(=O)CCCN(C)C/C=C1/CN(C(C(=O)C2CC2)c2ccccc2F)CCC1SC(C)=O (stereo not shown) [Example 89, (Z)-4-(Acetylsulfanyl)-1-[2-cyclopropyl-1-(2-fluorophenyl)-2-oxoethyl]-3-(2-{N-[3-(ethoxycarbonyl)propyl]-N-methylamino}ethylidene)piperidine dihydrochloride]",83
